Source: paper PMC8433807, “Scaffold Repurposing of In-House Small Molecule Candidates Leads to Discovery of First-in-Class CDK-1/HER-2 Dual Inhibitors: In Vitro and In Silico Screening” (Molecules, 2021)

Tests used:
CDK-1/cyclin B = molecular target: T1, CDK-1/cyclin B (Homo sapiens, UniProt P06493); experiment: Kinase HotSpot activity assay, single dose in duplicate; assay type: biochemical; conditions: 10 µM; 10 μM compound; 10 μM ATP; value is residual kinase activity, not inhibition
T1 construct: gene CDK1; Reaction Biology Corp. Kinase HotSpot service; with G2/mitotic-specific cyclin-B1

HER-2 = molecular target: T2, HER-2 (Homo sapiens, UniProt P04626); experiment: as above; assay type: biochemical; conditions: 10 µM; 10 μM compound; 10 μM ATP; value is residual kinase activity, not inhibition
T2 construct: gene ERBB2; Reaction Biology Corp. Kinase HotSpot service
T2 sequence (P04626 676-1255 limits assumed): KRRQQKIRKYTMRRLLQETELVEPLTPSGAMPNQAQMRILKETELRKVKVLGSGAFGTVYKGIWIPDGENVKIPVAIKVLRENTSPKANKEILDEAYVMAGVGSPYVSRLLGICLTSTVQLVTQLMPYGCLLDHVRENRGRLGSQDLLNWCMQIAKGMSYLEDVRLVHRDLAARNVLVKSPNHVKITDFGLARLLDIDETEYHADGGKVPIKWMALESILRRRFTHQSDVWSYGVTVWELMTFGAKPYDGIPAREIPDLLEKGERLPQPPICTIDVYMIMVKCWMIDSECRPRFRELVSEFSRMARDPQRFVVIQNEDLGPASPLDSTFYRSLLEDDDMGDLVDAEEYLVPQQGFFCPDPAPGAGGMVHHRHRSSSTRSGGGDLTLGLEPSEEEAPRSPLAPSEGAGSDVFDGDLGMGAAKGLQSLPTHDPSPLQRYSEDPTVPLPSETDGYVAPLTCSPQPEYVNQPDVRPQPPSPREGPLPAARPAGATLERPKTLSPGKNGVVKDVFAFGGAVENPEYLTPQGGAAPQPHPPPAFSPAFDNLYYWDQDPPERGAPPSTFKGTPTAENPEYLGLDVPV

T1 sequence (P06493 whole entry): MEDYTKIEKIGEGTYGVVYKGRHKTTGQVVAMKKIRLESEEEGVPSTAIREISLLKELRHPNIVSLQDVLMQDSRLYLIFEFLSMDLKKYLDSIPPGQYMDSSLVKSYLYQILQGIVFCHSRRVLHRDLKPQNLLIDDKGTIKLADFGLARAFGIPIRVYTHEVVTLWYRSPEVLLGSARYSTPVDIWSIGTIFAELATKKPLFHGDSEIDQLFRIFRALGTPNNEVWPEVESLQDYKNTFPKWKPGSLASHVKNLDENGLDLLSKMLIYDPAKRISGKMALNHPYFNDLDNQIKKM
T1 sequence (P14635 whole entry partner): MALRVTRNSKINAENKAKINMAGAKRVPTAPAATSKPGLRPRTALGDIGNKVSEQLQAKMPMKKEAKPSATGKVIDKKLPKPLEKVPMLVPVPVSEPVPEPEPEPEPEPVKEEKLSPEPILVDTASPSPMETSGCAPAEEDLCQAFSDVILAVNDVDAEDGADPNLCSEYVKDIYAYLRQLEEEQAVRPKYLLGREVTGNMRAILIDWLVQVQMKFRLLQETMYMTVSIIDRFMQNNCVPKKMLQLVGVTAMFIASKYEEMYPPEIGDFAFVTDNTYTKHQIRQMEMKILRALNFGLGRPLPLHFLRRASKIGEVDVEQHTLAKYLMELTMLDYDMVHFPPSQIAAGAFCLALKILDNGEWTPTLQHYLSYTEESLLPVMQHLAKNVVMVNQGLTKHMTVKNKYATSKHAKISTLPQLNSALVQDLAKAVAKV

% Activity / CDK-1/cyclin B (CDK-1/cyclin B): 51% | % Activity / HER-2 (HER-2): 52%
SMILES: O=C(Nc1ccc2c(ccn2C(=O)c2cccc(F)c2)c1)c1ccnnc1 [15l]
